The target of test [1] is T1, MDMX (Homo sapiens, UniProt O15151).
T1 sequence (O15151 2-134): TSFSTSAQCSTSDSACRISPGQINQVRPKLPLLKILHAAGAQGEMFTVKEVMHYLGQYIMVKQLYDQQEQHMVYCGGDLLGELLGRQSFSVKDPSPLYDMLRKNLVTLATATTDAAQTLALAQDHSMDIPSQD
The test can be described thus: HTRF test: inhibition of MDMX-p53 protein binding. On the technique in general: TR-FRET usually uses a lanthanide donor and a delayed reading to cut background.

Test [2] deals with Blood cancer cells RS4; 11. Description: CellTiter Glo test: growth inhibition of cells. It is filed as cell-based. Particulars: Homo sapiens, 11 cells, 72 h, cell viability. For orientation: ATP-based viability assays read luminescence as a measure of living cells.
Test [3] has as its target MDM2 (Homo sapiens, UniProt Q00987). The test can be described thus: HTRF test: inhibition of MDM2-p53 protein binding.

Chain of MDM2 (Q00987 2-138): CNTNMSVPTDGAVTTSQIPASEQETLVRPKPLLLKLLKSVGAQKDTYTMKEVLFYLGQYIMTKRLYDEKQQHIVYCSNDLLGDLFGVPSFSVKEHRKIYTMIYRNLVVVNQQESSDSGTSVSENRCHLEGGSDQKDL

For orientation: IC50 means the concentration needed to halve the response being measured. Higher therefore signals a need for much substance. For the compound `Cc1c(Cl)ccc2c(/C=C3\NC(=O)N(C(C(=O)NCCO)c4ccc(C#N)cc4)C3=O)c[nH]c12` (stereo not drawn) [Compound 60, (Z)-2-(4-((6-chloro-7-methyl-1H-indol-3-yl)methylene)-2,5-dioxoimidazolidin-1-yl)-2-(4-cyanophenyl)-N-(2-hydroxyethyl)acetamide], the IC50 in test [1] is less than 10 nM; in test [2] it was not above 1000 nM; in test [3], less than 10 nM.
In the case of `Cc1c(Cl)ccc2c(/C=C3\NC(=O)N(Cc4ccc(C#N)c(F)c4)C3=O)c[nH]c12` [Compound 21, (Z)-4-((4-((6-chloro-7-methyl-1H-indol-3-yl)methylene)-2,5-dioxoimidazolidin-1-yl)methyl)-2-fluorobenzonitrile], the results for the IC50 in test [1], in test [2] and in test [3] were less than 10 nM, not above 1000 nM and 10 to 100 nM, respectively.
The matching figures for `N#Cc1ccc(C(C(=O)NCCO)N2C(=O)N/C(=C\c3c[nH]c4cc(Cl)ccc34)C2=O)cc1` (stereo not drawn) [Compound 61, (Z)-2-(4-((6-chloro-1H-indol-3-yl)methylene)-2,5-dioxoimidazolidin-1-yl)-2-(4-cyanophenyl)-N-(2-hydroxyethyl)acetamide]: 10 to 100 nM, 1000 to 10000 nM and less than 10 nM.
The matching figures for `O=C1N/C(=C\c2c[nH]c3c(F)c(Cl)ccc23)C(=O)N1Cc1ccc(Cl)cc1F` [Compound 98, (Z)-3-(4-chloro-2-fluorobenzyl)-5-((6-chloro-7-fluoro-1H-indol-3-yl)methylene)imidazolidine-2,4-dione]: more than 100 nM, not above 1000 nM and 10 to 100 nM.
The matching figures for `O=C1N/C(=C\c2c[nH]c3cc(Cl)ccc23)C(=O)N1C(CO)c1ccc(Cl)cc1` (stereo not drawn) [Compound 45, (Z)-5-((6-chloro-1H-indol-3-yl)methylene)-3-(1-(4-chlorophenyl)-2-hydroxyethyl)imidazolidine-2,4-dione]: 10 to 100 nM, not above 1000 nM and 10 to 100 nM.
For `Cc1c(Cl)ccc2c(/C=C3\NC(=O)N(C(C(=O)NCCO)c4ccc(C#N)c(F)c4)C3=O)c[nH]c12` (stereo not drawn) [Compound 67, (Z)-2-(4-((6-chloro-7-methyl-1H-indol-3-yl)methylene)-2,5-dioxoimidazolidin-1-yl)-2-(4-cyano-3-fluorophenyl)-N-(2-hydroxyethyl)acetamide], the concentration for half-maximal inhibition (IC50) is less than 10 nM in test [1], not above 1000 nM in test [2] and less than 10 nM in test [3].
As to `Cc1c(Cl)ccc2c(/C=C3\NC(=O)N(C(C(=O)NC45CC(O)(C4)C5)c4ccc(F)c(F)c4)C3=O)c[nH]c12` (stereo not drawn) [Compound 57, (Z)-2-(4-((6-chloro-7-methyl-1H-indol-3-yl)methylene)-2,5-dioxoimidazolidin-1-yl)-2-(3,4-difluorophenyl)-N-(3-hydroxylbicyclo[1.1.1]pentan-1-yl)acetamide], the IC50 was less than 10 nM in test [1], not above 1000 nM in test [2] and less than 10 nM in test [3].
With `N#Cc1ccc([C@H](CO)N2C(=O)N/C(=C\c3c[nH]c4cc(Cl)ccc34)C2=O)cc1` [Compound 49, (R,Z)-4-(1-(4-((6-chloro-1H-indol-3-yl)methylene)-2,5-dioxoimidazolidin-1-yl)-2-hydroxyethyl)benzonitrile], the 50% inhibitory concentration (IC50) in test [1] is 10 to 100 nM; in test [2] it was not above 1000 nM; in test [3], less than 10 nM.
The matching figures for `N#Cc1ccc([C@@H](CO)N2C(=O)N/C(=C\c3c[nH]c4cc(Cl)ccc34)C2=O)cc1` [Compound 50, (S,Z)-4-(1-(4-((6-chloro-1H-indol-3-yl)methylene)-2,5-dioxoimidazolidin-1-yl)-2-hydroxyethyl)benzonitrile]: more than 100 nM, not above 1000 nM and 10 to 100 nM.
Regarding `O=C1N/C(=C\c2c[nH]c3c(F)c(Cl)ccc23)C(=O)N1Cc1cc(F)c(Cl)cc1F` [Compound 100, (Z)-3-(4-chloro-2,5-difluorobenzyl)-5-((6-chloro-7-fluoro-1H-indol-3-yl)methylene)imidazolidine-2,4-dione], the IC50 is 10 to 100 nM in test [1], not above 1000 nM in test [2] and less than 10 nM in test [3].
The matching figures for `CSc1c(Cl)ccc2c(/C=C3\NC(=O)N(Cc4ccc(F)c(F)c4)C3=O)c[nH]c12` [Compound 9]: 10 to 100 nM, more than 10000 nM and 10 to 100 nM.
For the compound `N#Cc1ccc(C(C(=O)NCCO)N2C(=O)N/C(=C\c3c[nH]c4c(F)c(Cl)ccc34)C2=O)cc1F` (stereo not drawn) [Compound 41, (Z)-2-(4-((6-chloro-7-fluoro-1H-indol-3-yl)methylene)-2,5-dioxoimidazolidin-1-yl)-2-(4-cyano-3-fluorophenyl)-N-(2-hydroxyethyl)acetamide], the results for the IC50 in test [1], in test [2] and in test [3] were less than 10 nM, not above 1000 nM and less than 10 nM, respectively.
With `N#Cc1ccc(CN2C(=O)N/C(=C\c3c[nH]c4c(F)c(Cl)ccc34)C2=O)cc1F` [Compound 14, (Z)-4-((4-((6-chloro-7-fluoro-1H-indol-3-yl)methylene)-2,5-dioxoimidazolidin-1-yl)methyl)-2-fluorobenzonitrile], the IC50 in test [1] is less than 10 nM; in test [2], not above 1000 nM; in test [3], less than 10 nM.
Turning to `O=C1N/C(=C\c2c[nH]c3c(F)c(Cl)ccc23)C(=O)N1C(CO)c1cc(F)c(Cl)cc1F` (stereo not drawn) [Compound 101, (Z)-3-(1-(4-chloro-2,5-difluorophenyl)-2-hydroxyethyl)-5-((6-chloro-7-fluoro-1H-indol-3-yl)methylene)imidazolidine-2,4-dione], the figures for the IC50 in test [1], in test [2] and in test [3] were more than 100 nM, 1000 to 10000 nM and 10 to 100 nM, respectively.
On to `O=C1N/C(=C\c2c[nH]c3cc(Cl)ccc23)C(=O)N1Cc1ccc(F)c(F)c1` [Compound 1, (Z)-5-((6-chloro-1H-indol-3-yl)methylene)-3-(3,4-difluorobenzyl)imidazolidine-2,4-dione], for which the IC50 in test [1] was 10 to 100 nM; in test [2], 1000 to 10000 nM; in test [3], 10 to 100 nM.
In the case of `O=C(NCCO)C(c1ccc(Cl)cc1)N1C(=O)N/C(=C\c2c[nH]c3c(F)c(Cl)ccc23)C1=O` (stereo not drawn) [Compound 59, (Z)-2-(4-((6-chloro-7-fluoro-1H-indol-3-yl)methylene)-2,5-dioxoimidazolidin-1-yl)-2-(4-chlorophenyl)-N-(2-hydroxyethyl)acetamide], the IC50 in test [1] was 10 to 100 nM; in test [2], not above 1000 nM; in test [3], less than 10 nM.
The matching figures for `O=C1N/C(=C\c2c[nH]c3c(F)c(Cl)ccc23)C(=O)N1Cc1cc(F)c(Cl)c(F)c1` [Compound 106, (Z)-3-(4-chloro-3,5-difluorobenzyl)-5-((6-chloro-7-fluoro-1H-indol-3-yl)methylene)imidazolidine-2,4-dione]: 10 to 100 nM, not above 1000 nM and 10 to 100 nM.
`O=C1N/C(=C\c2c[nH]c3c(F)c(Cl)ccc23)C(=O)N1Cc1ccc(F)c(F)c1` [Compound 10, (Z)-5-((6-chloro-7-fluoro-1H-indol-3-yl)methylene)-3-(3,4-difluorobenzyl)imidazolidine-2,4-dione]: the IC50 in test [1] fell in the range of 10 to 100 nM; in test [2] it was 1000 to 10000 nM; in test [3], 10 to 100 nM.
On to `O=C1N/C(=C\c2c[nH]c3cc(Cl)ccc23)C(=O)N1C(CO)c1ccc(Cl)c(F)c1` (stereo not drawn) [Compound 79, (Z)-5-((6-chloro-1H-indol-3-yl)methylene)-3-(1-(4-chloro-3-fluorophenyl)-2-hydroxyethyl)imidazolidine-2,4-dione], for which the half-inhibitory concentration (IC50) was 10 to 100 nM in test [1], not above 1000 nM in test [2] and 10 to 100 nM in test [3].
As for `O=C1N/C(=C\c2c[nH]c3cc(Cl)ccc23)C(=O)N1Cc1ccc(F)cc1` [Compound 3, (Z)-5-((6-chloro-1H-indol-3-yl)methylene)-3-(4-fluorobenzyl)imidazolidine-2,4-dione], the IC50 is 10 to 100 nM in test [1], not above 1000 nM in test [2] and 10 to 100 nM in test [3].
For `N#Cc1cccc(CN2C(=O)N/C(=C\c3c[nH]c4c(F)c(Cl)ccc34)C2=O)c1` [Compound 18, (Z)-3-((4-((6-chloro-7-fluoro-1H-indol-3-yl)methylene)-2,5-dioxoimidazolidin-1-yl)methyl)benzonitrile], the half-inhibitory concentration (IC50) in test [1] was 10 to 100 nM; in test [2], not above 1000 nM; in test [3], 10 to 100 nM.

Source of the values: US20250223307A1, “MDM2/MDMX DOUBLE-TARGET INHIBITOR COMPOUND, PRODRUG, PHARMACEUTICAL COMPOSITION, AND PREPARATION METHOD THEREFOR AND USE THEREOF” (GLOBAL HEALTH DRUG DISCOVERY INSTITUTE, priority 2022, published 2025).
